The record followed here is patent US6867207B2, “IL-5 inhibiting 6-azauracil derivatives” (Janssen Pharmaceutica N.V., priority 1997, dated 2005).

SMILES strings stand for the structures.

The first test deals with IL-5 production. As to the kind of experiment: In vitro inhibition of IL-5 production in human blood (phytohemagglutinin-stimulated whole blood, ELISA). The format is cell-based. Particulars: test dose 1×10^−5 M (values marked *), 48 hours, read-out: % inh. (percentage inhibition of IL-5 production), marked with *. Put shortly: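 Percent inhibition of IL-5, quantified by ELISA in cell-free supernatants, is given at a single dose of 1×10^−6 M (or 1×10^−5 M). Threefold-diluted human whole blood from healthy men received compound for 60 min at 37° C before 48 h PHA stimulation at 2 μg/mL.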
(ELISA stands for enzyme-linked immunosorbent assay.)
A word on the inhibition: it is the drop in the measured response relative to a control, in per cent. As to `O=c1cnn(-c2ccc(C(c3ccc(Cl)cc3)N3CCC(O)CC3)c(Cl)c2)c(=O)[nH]1` (racemic) [Compound 119, (±)-2-[3-chloro-4-[(4-chlorophenyl)(4-hydroxy-1-piperidinyl)methyl]phenyl]-1,2,4-triazine-3,5(2H,4H)-dione], the inhibition at 10 µM worked out at 72%.

Staying with this test, now noted: test dose 1×10^−6 M, 48 hours.
For the compound `O=c1cnn(-c2cc(Cl)c(C(c3ccc(Cl)cc3)c3nc(-c4cccc(Br)c4)cs3)c(Cl)c2)c(=O)[nH]1` (racemic) [Comp 250], the “% inh. (percentage inhibition of IL-5 production)” value is 84%.
The same measure, in the same setting: for `Cc1sc(C(c2ccc(Cl)cc2)c2c(Cl)cc(-n3ncc(=O)[nH]c3=O)cc2Cl)nc1-c1cccc(F)c1` (racemic) [Comp 258] the value was 98%.
Still for that read-out and setting: for `O=c1cnn(-c2ccc(C(NC3CCCCC3)c3ccc(Cl)cc3)c(Cl)c2)c(=O)[nH]1` (racemic) [Compound 46] the value was 64%.
For the compound `Cc1ccnc(SC(c2ccc(Cl)cc2)c2ccc(-n3ncc(=O)[nH]c3=O)cc2Cl)n1` (racemic) [Compound 75], the “% inh. (percentage inhibition of IL-5 production)” value is recorded as 72%.
On the same count and under the same terms, for `O=c1cnn(-c2cc(Cl)c(C(c3ccc(Cl)cc3)c3nc(Cc4ccccc4)cs3)c(Cl)c2)c(=O)[nH]1` (racemic) [Comp 225] the value was 80%.
The same measure, in the same setting: next, `CCc1sc(C(c2ccc(Cl)cc2)c2c(Cl)cc(-n3ncc(=O)[nH]c3=O)cc2Cl)nc1-c1ccccc1` (racemic) [Comp 224]: 95%.
On the same count and under the same terms, for `Cc1ccsc1-c1nnc(C(c2ccc(Cl)cc2)c2c(Cl)cc(-n3ncc(=O)[nH]c3=O)cc2Cl)o1` (racemic) [Compound 203] the value was 82%; for `COCCNCc1sc(C(c2ccc(Cl)cc2)c2c(Cl)cc(-n3ncc(=O)[nH]c3=O)cc2Cl)nc1-c1ccccc1` (racemic) [Comp 316], 85%; for `O=c1cnn(-c2cc(Cl)c(C(c3ccc(Cl)cc3)c3nc(-c4ccccc4)c(COC4CCCCC4)s3)c(Cl)c2)c(=O)[nH]1` (racemic) [Comp 310], 79%.
Regarding `O=c1cnn(-c2ccc(C(c3ccc(Cl)cc3)c3sc(-c4ccccc4Cl)nc3-c3ccccc3Cl)c(Cl)c2)c(=O)[nH]1` (racemic) [Compound 151], the “% inh. (percentage inhibition of IL-5 production)” value is 17%.
Regarding `O=C(NC1CCN(Cc2ccccc2)CC1)c1sc(C(c2ccc(Cl)cc2)c2c(Cl)cc(-n3ncc(=O)[nH]c3=O)cc2Cl)nc1-c1ccccc1` (racemic) [Comp 305], the “% inh. (percentage inhibition of IL-5 production)” value was determined as 51%.
Consider `CCOCc1sc(C(c2ccc(Cl)cc2)c2c(Cl)cc(-n3ncc(=O)[nH]c3=O)cc2Cl)nc1-c1ccccc1` (racemic) [Comp 295], for which the “% inh. (percentage inhibition of IL-5 production)” value turned out to be 90%.
Turning to `CN(C)c1ccnc(SC(c2ccc(Cl)cc2)c2c(Cl)cc(-n3ncc(=O)[nH]c3=O)cc2Cl)n1` (racemic) [Compound 355], the “% inh. (percentage inhibition of IL-5 production)” value is recorded as 83%.
As to `O=c1cnn(-c2cc(Cl)c(C(c3ccc(Cl)cc3)c3nnc(-c4ccccc4[N+](=O)[O-])o3)c(Cl)c2)c(=O)[nH]1` (racemic) [Compound 210], the “% inh. (percentage inhibition of IL-5 production)” value turned out to be 79%.
With `[N-]=[N+]=Nc1ccc(-c2nnc(C(c3ccc(Cl)cc3)c3c(Cl)cc(-n4ncc(=O)[nH]c4=O)cc3Cl)o2)cc1` (racemic) [Compound 185], the “% inh. (percentage inhibition of IL-5 production)” value was 81%.
With `O=c1cnn(-c2ccc(C(O)(c3ccc(Cl)cc3)c3nc(-c4ccccc4)cs3)c(Cl)c2)c(=O)[nH]1` (racemic) [Comp 34], the “% inh. (percentage inhibition of IL-5 production)” value amounted to 58%.
In the case of `Nc1ccc(SC(c2ccc(Cl)cc2)c2ccc(-n3ncc(=O)[nH]c3=O)cc2Cl)cc1` (racemic) [Compound 59], the “% inh. (percentage inhibition of IL-5 production)” value was 76%.
The same measure, in the same setting: next, `O=c1cnn(-c2cc(Cl)c(C(c3ccc(Cl)cc3)c3nc(-c4ccccc4)c(Cc4ccccc4)s3)c(Cl)c2)c(=O)[nH]1` (racemic) [Comp 249]: 80%; `O=c1cnn(-c2cc(Cl)c(C(c3ccc(Cl)cc3)c3nc(-c4ccccc4Cl)cs3)c(Cl)c2)c(=O)[nH]1` (racemic) [Comp 32]: 90%; `CCc1sc(C(c2ccc(Cl)cc2)c2c(Cl)cc(-n3ncc(=O)[nH]c3=O)cc2Cl)nc1-c1ccccc1F` (racemic) [Comp 261]: 93%.
Regarding `O=c1cnn(-c2cc(Cl)c(C(c3ccc(Cl)cc3)c3nc(-c4cc(F)cc(F)c4)cs3)c(Cl)c2)c(=O)[nH]1` (racemic) [Comp 286], the “% inh. (percentage inhibition of IL-5 production)” value was 86%.
Still for that read-out and setting: for `O=c1cnn(-c2cc(Cl)c(C(CSc3ccccn3)c3ccc(Cl)cc3)c(Cl)c2)c(=O)[nH]1` (racemic) [Compound 422, (±)-2-[3,5-dichloro[1-(4-chlorophenyl)-2-(2-pyridinylthio)ethyl]phenyl-1,2,4-triazine-3,5(2H,4H)-dione] the value was 87%; for `O=c1cnn(-c2cc(Cl)c(C(c3ccc(Cl)cc3)c3nc(-c4ccccc4)c(CN4CCC(N5CCCCC5)CC4)s3)c(Cl)c2)c(=O)[nH]1` (racemic) [Comp 321], 92%; for `O=c1cnn(-c2ccc(C(Sc3ccc(C(F)(F)F)cn3)c3ccc(Cl)cc3)c(Cl)c2)c(=O)[nH]1` (stereo not shown) [Compound 88], 26%.
Same read-out and setting: for `O=c1cnn(-c2cc(Cl)c(C(c3ccc(Cl)cc3)c3nc(-c4cccs4)cs3)c(Cl)c2)c(=O)[nH]1` (racemic) [Comp 31] the value was 93%; for `O=c1cnn(-c2cc(Cl)c(C(c3ccc(Cl)cc3)c3nnc(-c4cccc(Cl)c4)o3)c(Cl)c2)c(=O)[nH]1` (racemic) [Compound 157], 85%; for `Cc1nc(-c2ccccc2Cl)c(C(c2ccc(Cl)cc2)c2ccc(-n3ncc(=O)[nH]c3=O)cc2Cl)s1` (racemic) [Compound 139], 60%.
Still for that read-out and setting: for `COCCNC(c1ccc(Cl)cc1)c1ccc(-n2ncc(=O)[nH]c2=O)cc1Cl` (racemic) [Compound 41] the value was 11%; for `Cc1sc(C(c2ccc(Cl)cc2)c2c(Cl)cc(-n3ncc(=O)[nH]c3=O)cc2Cl)nc1-c1c(F)cccc1F` (racemic) [Comp 268], 83%.
`CCOC(=O)c1sc(C(c2ccc(Cl)cc2)c2c(Cl)cc(-n3ncc(=O)[nH]c3=O)cc2Cl)nc1-c1ccccc1F` (racemic) [Comp 285]: the “% inh. (percentage inhibition of IL-5 production)” value is recorded as 89%.
Same read-out and setting: next, `O=c1cnn(-c2cc(Cl)c(C(c3ccc(Cl)cc3)c3ncc(-c4ccccc4)o3)c(Cl)c2)c(=O)[nH]1` (racemic) [Comp 105]: 88%.

Staying with this test, now noted: test dose 1×10^−6 M, 48 hours, read-out: % inh. (percentage inhibition of IL-5 production).
Take `O=c1cnn(-c2ccc(C(c3ccc(Cl)cc3)c3nc4ccccc4s3)c(Cl)c2)c(=O)[nH]1` (racemic) [Compound 130, (±)-2-[4-[2-benzothiazolyl-(4-chlorophenyl)methyl]-3-chlorophenyl]-1,2,4-triazine-3,5(2H,4H)-dione]: the inhibition at 1 µM amounted to 70%.
The same measure, in the same setting: for `O=c1cnn(-c2ccc(C(Nc3nc4cccnc4s3)c3ccc(Cl)cc3)c(Cl)c2)c(=O)[nH]1` (racemic) [Compound 410, (±)-2-[3-chloro-4-[(4-chlorophenyl)[(thiazolo[5,4-b]pyridin-2-yl)amino]methyl]phenyl]-1,2,4-triazine-3,5(2H,4H)-dione] the value was 15%.
